Measured values published in patent US10464947B2 (Incyte Corporation, priority 2013, dated 2019).

The compounds below were run on KMS.12.BM cells (assay: KMS.12.BM Cell Viability Assay (Example B1)). Conditions: 3 days, Cell Titer-GLO, read-out: KMS cellular IC50.
Assay type: cell-based, human
Description: KMS.12.BM cell line (human myeloma) was purchased from JCRB (Osaka, Japan) and maintained in RPMI with 10% FBS culture medium. To measure the cytotoxic activity of the compounds through ATP quantitation, the KMS.12.BM cells are plated in the RPMI culture medium at 5000 cells/well/per 100 μL into a 96-well polystyrene clear black tissue culture plate (Greiner-bio-one through VWR, NJ), in the presence or absence of a concentration range of test compounds. After 3 days, […] Cell Titer-GLO Luminescent (Promega, Madison, Wis.) cell culture agent is added to each well for 10 min. at room temperature to stabilize the luminescent signal. This determines the number of viable cells in culture based on quantitation of the ATP present, which signals the presence of metabolically active cells.
`Cc1noc(C)c1-c1cc(C(C)O)c2[nH]c(=O)n3c2c1OC[C@@H]3c1ccccn1` (single isomer, unassigned) [Example 144B] showed an IC50 of less than 1 µM. In the case of `Cc1noc(C)c1-c1ccc2nc(N3CCC(C)(O)C3)n3c2c1OC[C@@H]3c1ccccn1` (single isomer, unassigned) [Example 146B], the IC50 is reported as less than 1 µM.

Same assay, conditions: Homo sapiens, 72 h, 3 days, Cell Titer-GLO, read-out: KMS cellular IC50
`Cc1noc(C)c1-c1cc(Br)c2[nH]c(=O)n3c2c1OCC3c1ccccn1` (single isomer, unassigned) [Example 267B, 9-bromo-7-(3,5-dimethylisoxazol-4-yl)-4-pyridin-2-yl-4,5-dihydroimidazo[1,5,4-de][1,4]benzoxazin-2(1H)-one] gave an IC50 of less than 1 µM. Compound `Cc1noc(C)c1-c1ccc2[nH]c(=O)n3c2c1OCC3c1ccccc1` (stereo not drawn) [Example 1, 7-(3,5-Dimethylisoxazol-4-yl)-4-phenyl-4,5-dihydroimidazo[1,5,4-de][1,4]benzoxazin-2(1H)-one] has an IC50 of less than 1 µM. `COc1cccc(C2COc3c(-c4c(C)noc4C)ccc4[nH]c(=O)n2c34)c1` (stereo not drawn) [Example 6, 7-(3,5-Dimethylisoxazol-4-yl)-4-(3-methoxyphenyl)-4,5-dihydroimidazo[1,5,4-de][1,4]benzoxazin-2(1H)-one] gave an IC50 of less than 1 µM. With `Cc1n[nH]cc1-c1ccc2[nH]c(=O)n3c2c1OCC3c1ccccc1` (stereo not drawn) [Example 12, 7-(3-Methyl-1H-pyrazol-4-yl)-4-phenyl-4,5-dihydroimidazo[1,5,4-de][1,4]benzoxazin-2(1H)-one] the IC50 was 1 to 10 µM. In the case of `Cc1noc(C)c1-c1ccc2[nH]c(=O)n3c2c1OCC3c1cccc[n+]1[O-]` (stereo not drawn) [Example 16, 7-(3,5-Dimethylisoxazol-4-yl)-4-(1-oxidopyridin-2-yl)-4,5-dihydroimidazo[1,5,4-de][1,4]benzoxazin-2(1H)-one], the IC50 is reported as less than 1 µM. `Cc1noc(C)c1-c1ccc2[nH]c(=O)n3c2c1OCC3C1CCCCC1` (stereo not drawn) [Example 17, 4-Cyclohexyl-7-(3,5-dimethylisoxazol-4-yl)-4,5-dihydroimidazo[1,5,4-de][1,4]benzoxazin-2(1H)-one] showed an IC50 of less than 1 µM. `Cc1noc(C)c1-c1ccc2[nH]c(=O)n3c2c1OCC3c1ccc(F)cn1` (stereo not drawn) [Example 19, 7-(3,5-Dimethylisoxazol-4-yl)-4-(5-fluoropyridin-2-yl)-4,5-dihydroimidazo[1,5,4-de][1,4]benzoxazin-2(1H)-one] was tested, and the IC50 was less than 1 µM. For `CCNC(=O)COc1ccccc1C1COc2c(-c3c(C)noc3C)ccc3[nH]c(=O)n1c23` (stereo not drawn) [Example 22, 2-{2-[7-(3,5-Dimethylisoxazol-4-yl)-2-oxo-1,2,4,5-tetrahydroimidazo[1,5,4-de][1,4]benzoxazin-4-yl]phenoxy}-N-ethylacetamide], the IC50 was less than 1 µM. Work on `CCOC(=O)C1Oc2c(-c3c(C)noc3C)ccc3[nH]c(=O)n(c23)C1c1ccccc1` (stereo not drawn) [Example 23, Ethyl 7-(3,5-dimethylisoxazol-4-yl)-2-oxo-4-phenyl-1,2,4,5-tetrahydroimidazo[1,5,4-de][1,4]benzoxazine-5-carboxylate] yielded an IC50 of less than 1 µM. For `Cn1nccc1-c1ccc2[nH]c(=O)n3c2c1OCC3c1ccccc1` (stereo not drawn) [Example 35, 7-(1-Methyl-1H-pyrazol-5-yl)-4-phenyl-4,5-dihydroimidazo[1,5,4-de][1,4]benzoxazin-2(1H)-one], the IC50 was less than 1 µM. `Cn1nccc1-c1cc(Br)c2[nH]c(=O)n3c2c1OCC3c1ccccc1` (stereo not drawn) [Example 36, 9-Bromo-7-(1-methyl-1H-pyrazol-5-yl)-4-phenyl-4,5-dihydroimidazo[1,5,4-de][1,4]benzoxazin-2(1H)-one] was tested, and the IC50 was less than 1 µM. `Cc1noc(C)c1-c1ccc2ncn3c2c1OCC3c1ccccc1` (stereo not drawn) [Example 39, 7-(3,5-Dimethylisoxazol-4-yl)-4-phenyl-4,5-dihydroimidazo[1,5,4-de][1,4]benzoxazine] gave an IC50 of less than 1 µM. In the case of `Cc1noc(C)c1-c1ccc2nc(-c3ccccc3)n3c2c1OCC3c1ccccc1` (stereo not drawn) [Example 41, 7-(3,5-Dimethylisoxazol-4-yl)-2,4-diphenyl-4,5-dihydroimidazo[1,5,4-de][1,4]benzoxazine], the IC50 is reported as less than 1 µM. `Cc1noc(C)c1-c1cc(C#N)c2[nH]c(=O)n3c2c1OCC3c1ccccc1` (stereo not drawn) [Example 42, 7-(3,5-Dimethylisoxazol-4-yl)-2-oxo-4-phenyl-1,2,4,5-tetrahydroimidazo[1,5,4-de][1,4]benzoxazine-9-carbonitrile] gave an IC50 of less than 1 µM. Work on `Cc1noc(C)c1-c1cc(-c2ccccc2)c2[nH]c(=O)n3c2c1OCC3c1ccccc1` (stereo not drawn) [Example 43, 7-(3,5-Dimethylisoxazol-4-yl)-4,9-diphenyl-4,5-dihydroimidazo[1,5,4-de][1,4]benzoxazin-2(1H)-one] yielded an IC50 of less than 1 µM. Compound `Cc1noc(C)c1-c1cc(Br)c2[nH]c(=O)n3c2c1OCC3c1ccccc1` (stereo not drawn) [Example 45, 9-Bromo-7-(3,5-Dimethylisoxazol-4-yl)-4-phenyl-4,5-dihydroimidazo[1,5,4-de][1,4]benzoxazin-2(1H)-one] has an IC50 of less than 1 µM. `Cc1noc(C)c1-c1cc(C)c2[nH]c(=O)n3c2c1OCC3c1ccccc1` (stereo not drawn) [Example 46, 7-(3,5-Dimethylisoxazol-4-yl)-9-methyl-4-phenyl-4,5-dihydroimidazo[1,5,4-de][1,4]benzoxazin-2(1H)-one] gave an IC50 of less than 1 µM. For `Cc1noc(C)c1-c1ccc2[nH]c(=O)n3c2c1OCC3c1ccc(F)cc1` (stereo not drawn) [Example 49, 7-(3,5-Dimethylisoxazol-4-yl)-4-(4-fluorophenyl)-4,5-dihydroimidazo[1,5,4-de][1,4]benzoxazin-2(1H)-one], the IC50 was less than 1 µM.

Same assay, conditions: Homo sapiens, KMS-12-BM, 72 h, 3 days, Cell Titer-GLO, read-out: KMS cellular IC50
`Cc1noc(C)c1-c1ccc2[nH]c(=O)n3c2c1OCC3C1CCCCN1` (single isomer, unassigned) [Example 63A, 7-(3,5-Dimethylisoxazol-4-yl)-4-piperidin-2-yl-4,5-dihydroimidazo[1,5,4-de][1,4]benzoxazin-2(1H)-one 2,2,2-trifluoroacetate] gave an IC50 of 1 to 10 µM. With `Cc1noc(C)c1-c1ccc2nc(N3CCC(C)(O)C3)n3c2c1OC[C@@H]3c1ccccn1` (single isomer, unassigned) [Example 146A] the IC50 was less than 1 µM. In the case of `Cc1noc(C)c1-c1cc(Cl)c2[nH]c(=O)n3c2c1OCC3c1ccccn1` (single isomer, unassigned) [Example 266A, 9-chloro-7-(3,5-dimethylisoxazol-4-yl)-4-pyridin-2-yl-4,5-dihydroimidazo[1,5,4-de][1,4]benzoxazin-2(1H)-one], the IC50 is reported as less than 1 µM. Work on `CCOC(=O)C1Oc2c(-c3c(C)noc3C)ccc3[nH]c(=O)n(c23)C1c1ccccn1` (stereo not drawn) [Example 20, Ethyl 7-(3,5-dimethylisoxazol-4-yl)-2-oxo-4-pyridin-2-yl-1,2,4,5-tetrahydroimidazo[1,5,4-de][1,4]benzoxazine-5-carboxylate] yielded an IC50 of less than 1 µM. `Cc1noc(C)c1-c1ccc2nc(NC(C)(C)CO)n3c2c1OCC3c1ccccc1` (stereo not drawn) [Example 33, 2-{[7-(3,5-Dimethylisoxazol-4-yl)-4-phenyl-4,5-dihydroimidazo[1,5,4-de][1,4]benzoxazin-2-yl]amino}-2-methylpropan-1-ol] was tested, and the IC50 was 1 to 10 µM. `Cc1cc(-c2ccnn2C)c2c3c1[nH]c(=O)n3C(c1ccccc1)CO2` (stereo not drawn) [Example 37, 9-Methyl-7-(1-methyl-1H-pyrazol-5-yl)-4-phenyl-4,5-dihydroimidazo[1,5,4-de][1,4]benzoxazin-2(1H)-one] gave an IC50 of less than 1 µM. Compound `Cc1noc(C)c1-c1ccc2nc(N3CCNCC3)n3c2c1OCC3c1ccccc1` (stereo not drawn) [Example 40, 7-(3,5-Dimethylisoxazol-4-yl)-4-phenyl-2-piperazin-1-yl-4,5-dihydroimidazo[1,5,4-de][1,4]benzoxazine] has an IC50 of less than 1 µM.
